# Tests used:
# [1] = Duration of action / clearance from central nervous system; conditions: in words
# release of aspartate = conditions: in words, literature; cited from earlier work
# release of glutamate = conditions: in words, literature; cited from earlier work
SMILES,duration of action [1],inhibition of aspartate release (release of aspartate),inhibition of glutamate release (release of glutamate)
"CN1CCN(c2nc(N)c(-c3cc(Cl)cc(Cl)c3Cl)c(C(F)(F)F)n2)CC1 [Example 1, 4-Amino-2-(4-methylpiperazin-1-yl)-5-(2,3,5-trichlorophenyl)-6-trifluoromethylpyrimidine]",long acting,,
"COCc1nc(N)nc(N)c1-c1cc(Cl)cc(Cl)c1Cl [Example 2, 2,4-Diamino-5-(2,3,5-trichlorophenyl)-6-methoxymethyl pyrimidine]",short acting,,
"CN1CCN(c2ncc(-c3cc(Cl)cc(Cl)c3Cl)c(N)n2)CC1.CS(=O)(=O)O [Example 3, 4-Amino-2-(4-methylpiperazin-1-yl)-5-(2,3,5-trichlorophenyl) pyrimidine mesylate]",long acting,,
"Nc1nc(N)c(-c2cc(Cl)cc(Cl)c2Cl)c(C(F)(F)F)n1 [Example 4, 2,4-Diamino-5-(2,3,5-trichlorophenyl)-6-trifluoromethyl pyrimidine]",long acting,,
"Nc1nnc(-c2cccc(Cl)c2Cl)c(N)n1 [lamotrigine, 3,5-diamino-6-(2,3-dichlorophenyl)-1,2,4-triazine]",,shown to inhibit the release,shown to inhibit the release

# Source: patent US5684005A, “Pharmacologically active CNS compounds” (Glaxo Wellcome Inc., priority 1988, dated 1997)
